The test system of assay [1] is endogenous class-IIa HDACs in HT-29 cells. Kind of assay: Whole-cell assay of endogenous class-IIa HDAC inhibition in HT-29 cells (Boc-Lys-TFA substrate). The settings on record: Homo sapiens, class-IIa selective substrate Boc-Lys-TFA, ± SEM. The class given is cell-based. The source says: (§1) The next step was to determine the specificity, selectivity and potency of NT376 to class-IIa HDACs against endogenous class-IIa HDACs in HT-29 cells using the class-distinguishing substrates similar to our previous work[23].
(§2) We utilized the well-established fluorogenic assay to screen NT376 against recombinant human HDAC isoforms and against endogenous HDACs in HT-29 cells. The class IIa HDAC fluorogenic assay functions in a two-step process: first, the class IIa HDAC removes the trifluoroacetate (TFA) from TFA-lysine substrate to generate free lysine which is recognized by trypsin and releases a fluorescent fluorophore (intact substrate is not recognized by trypsin) that can be detected using microplate reader. The IC50 was determined using nonlinear fit curves (GraphPad Prism) (% HDAC activity inhibition vs. compound concentration). […]
(§3) The cell-based HDAC inhibitor assays were performed in HT-29 cells (ATCC). […] The cells were then washed with HDAC Assay Buffer (RPMI 1640 media without phenol red, Gibco, containing 0.1% FBS), re-collected by centrifugation, resuspended in HDAC Assay Buffer, and counted. […] Fluorescent counts were read with a microplate reader at an excitation wavelength of 360 nm and emitted light was detected at 460 nm.

Another assay concerns the target T1, recombinant human HDAC5 (Homo sapiens, UniProt Q9UQL6).
T1 construct: purchased BPS Bioscience, Inc
Description: HDAC isoform inhibition fluorogenic assay (BPS Bioscience kit). Format: biochemical. The source says: (§4) We utilized the well-established fluorogenic assay to screen NT376 against recombinant human HDAC isoforms and against endogenous HDACs in HT-29 cells. The class IIa HDAC fluorogenic assay functions in a two-step process: first, the class IIa HDAC removes the trifluoroacetate (TFA) from TFA-lysine substrate to generate free lysine which is recognized by trypsin and releases a fluorescent fluorophore (intact substrate is not recognized by trypsin) that can be detected using microplate reader. The IC50 was determined using nonlinear fit curves (GraphPad Prism) (% HDAC activity inhibition vs. compound concentration). The IC50 measurements were performed in triplicates and experiments were repeated twice with known HDAC inhibitors NT160 and SAHA used as positive and […] controls respectively.
(§5) Preparation of NT376: A 1.0 mM stock solution of NT376 was prepared in 100% DMSO. 11-dilutions of NT376 were then prepared in HDAC assay buffer with the DMSO adjusted to 2.5% final concentration in the assay medium.
(§6) NT376 was screened against recombinant human HDACs isoforms using the commercially available HDACs enzyme assay kits (BPS Bioscience, Inc.). The experiments were performed according to the manufacturer protocol.

The next assay addresses T2, recombinant human HDAC6 (Homo sapiens, UniProt Q9UBN7).
T2 construct: purchased BPS Bioscience, Inc
T2 sequence (Q9UBN7 1-1215): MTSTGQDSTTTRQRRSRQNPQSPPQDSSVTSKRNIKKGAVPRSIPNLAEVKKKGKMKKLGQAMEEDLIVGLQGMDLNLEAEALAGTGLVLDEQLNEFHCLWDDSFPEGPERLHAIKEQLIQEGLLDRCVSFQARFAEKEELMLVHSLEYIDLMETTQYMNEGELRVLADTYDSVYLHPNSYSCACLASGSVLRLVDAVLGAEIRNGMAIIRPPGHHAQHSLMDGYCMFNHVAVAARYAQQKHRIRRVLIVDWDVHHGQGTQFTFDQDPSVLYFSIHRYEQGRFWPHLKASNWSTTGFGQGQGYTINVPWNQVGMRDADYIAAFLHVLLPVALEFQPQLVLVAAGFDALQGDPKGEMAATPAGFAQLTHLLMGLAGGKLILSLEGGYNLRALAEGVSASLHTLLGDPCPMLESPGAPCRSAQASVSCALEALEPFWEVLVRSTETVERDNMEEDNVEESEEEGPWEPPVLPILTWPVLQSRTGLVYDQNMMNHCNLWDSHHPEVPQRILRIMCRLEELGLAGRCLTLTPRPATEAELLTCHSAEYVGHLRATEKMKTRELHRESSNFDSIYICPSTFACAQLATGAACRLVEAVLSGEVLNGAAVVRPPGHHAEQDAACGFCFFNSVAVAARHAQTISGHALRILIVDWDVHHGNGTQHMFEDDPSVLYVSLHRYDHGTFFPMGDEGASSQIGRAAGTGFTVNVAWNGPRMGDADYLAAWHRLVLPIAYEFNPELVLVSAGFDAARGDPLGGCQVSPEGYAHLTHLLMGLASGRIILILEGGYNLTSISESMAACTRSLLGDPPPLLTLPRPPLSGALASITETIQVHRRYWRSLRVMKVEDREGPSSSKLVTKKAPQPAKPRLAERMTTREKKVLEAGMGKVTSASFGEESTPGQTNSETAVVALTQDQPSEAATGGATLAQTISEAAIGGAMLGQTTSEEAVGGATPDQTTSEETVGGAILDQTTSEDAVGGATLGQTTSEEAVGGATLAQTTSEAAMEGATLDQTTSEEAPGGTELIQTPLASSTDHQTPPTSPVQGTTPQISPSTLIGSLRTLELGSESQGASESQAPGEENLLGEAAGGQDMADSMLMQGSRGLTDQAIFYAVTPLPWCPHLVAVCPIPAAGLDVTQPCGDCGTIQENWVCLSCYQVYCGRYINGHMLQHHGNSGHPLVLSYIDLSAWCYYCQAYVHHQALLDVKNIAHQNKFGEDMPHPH
The assay is described as above. Format: biochemical. The settings on record: class-IIb.
Text: as §4, §5, §6

The target of another assay is T3, recombinant human HDAC1 (Homo sapiens, UniProt Q13547).
T3 construct: purchased BPS Bioscience, Inc
T3 sequence (Q13547 whole entry): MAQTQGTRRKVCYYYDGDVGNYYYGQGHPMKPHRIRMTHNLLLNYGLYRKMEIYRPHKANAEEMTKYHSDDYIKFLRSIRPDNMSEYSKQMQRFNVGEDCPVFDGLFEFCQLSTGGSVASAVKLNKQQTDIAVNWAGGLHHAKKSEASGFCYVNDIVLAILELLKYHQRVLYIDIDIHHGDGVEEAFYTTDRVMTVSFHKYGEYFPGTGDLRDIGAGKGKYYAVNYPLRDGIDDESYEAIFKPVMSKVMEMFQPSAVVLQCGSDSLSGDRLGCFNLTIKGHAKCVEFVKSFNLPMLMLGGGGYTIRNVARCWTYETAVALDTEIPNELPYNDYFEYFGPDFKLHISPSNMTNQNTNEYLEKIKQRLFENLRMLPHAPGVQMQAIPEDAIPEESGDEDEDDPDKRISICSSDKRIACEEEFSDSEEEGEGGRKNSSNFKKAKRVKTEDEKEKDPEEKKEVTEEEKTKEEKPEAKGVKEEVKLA
The description is as above. The settings on record: class-I. The class given is biochemical.
Text: as §4, §5, §6

Another assay has as its target T4, recombinant human HDAC4 (Homo sapiens, UniProt P56524).
T4 construct: purchased BPS Bioscience, Inc
The description is as above. Format: biochemical.
Text: as §4, §5, §6

A further assay concerns the target T5, recombinant human HDAC11 (Homo sapiens, UniProt Q96DB2).
T5 construct: purchased BPS Bioscience, Inc
T5 sequence (Q96DB2 1-347): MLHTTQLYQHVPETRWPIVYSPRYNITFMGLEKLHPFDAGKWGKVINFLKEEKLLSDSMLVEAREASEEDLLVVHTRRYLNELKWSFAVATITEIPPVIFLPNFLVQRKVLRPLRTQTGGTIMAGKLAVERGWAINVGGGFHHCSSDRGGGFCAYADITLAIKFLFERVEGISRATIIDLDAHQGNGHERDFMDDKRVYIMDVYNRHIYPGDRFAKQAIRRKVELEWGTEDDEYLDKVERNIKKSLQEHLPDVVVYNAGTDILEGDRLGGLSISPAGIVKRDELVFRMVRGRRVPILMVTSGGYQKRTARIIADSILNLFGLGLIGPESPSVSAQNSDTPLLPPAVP
Described as above. The following applies: class-IV. Format: biochemical.
Text: as §4, §5, §6

In assay [2] the test system is endogenous class-I/IIb HDACs in HT-29 cells. Kind of assay: Whole-cell assay of endogenous class-I/IIb HDAC inhibition in HT-29 cells (Boc-Lys-Ac substrate). Format: cell-based. The settings on record: Homo sapiens, class-I/IIb selective substrate Boc-Lys-Ac.
Text: as §1, §2, §3

T1 sequence (Q9UQL6 whole entry): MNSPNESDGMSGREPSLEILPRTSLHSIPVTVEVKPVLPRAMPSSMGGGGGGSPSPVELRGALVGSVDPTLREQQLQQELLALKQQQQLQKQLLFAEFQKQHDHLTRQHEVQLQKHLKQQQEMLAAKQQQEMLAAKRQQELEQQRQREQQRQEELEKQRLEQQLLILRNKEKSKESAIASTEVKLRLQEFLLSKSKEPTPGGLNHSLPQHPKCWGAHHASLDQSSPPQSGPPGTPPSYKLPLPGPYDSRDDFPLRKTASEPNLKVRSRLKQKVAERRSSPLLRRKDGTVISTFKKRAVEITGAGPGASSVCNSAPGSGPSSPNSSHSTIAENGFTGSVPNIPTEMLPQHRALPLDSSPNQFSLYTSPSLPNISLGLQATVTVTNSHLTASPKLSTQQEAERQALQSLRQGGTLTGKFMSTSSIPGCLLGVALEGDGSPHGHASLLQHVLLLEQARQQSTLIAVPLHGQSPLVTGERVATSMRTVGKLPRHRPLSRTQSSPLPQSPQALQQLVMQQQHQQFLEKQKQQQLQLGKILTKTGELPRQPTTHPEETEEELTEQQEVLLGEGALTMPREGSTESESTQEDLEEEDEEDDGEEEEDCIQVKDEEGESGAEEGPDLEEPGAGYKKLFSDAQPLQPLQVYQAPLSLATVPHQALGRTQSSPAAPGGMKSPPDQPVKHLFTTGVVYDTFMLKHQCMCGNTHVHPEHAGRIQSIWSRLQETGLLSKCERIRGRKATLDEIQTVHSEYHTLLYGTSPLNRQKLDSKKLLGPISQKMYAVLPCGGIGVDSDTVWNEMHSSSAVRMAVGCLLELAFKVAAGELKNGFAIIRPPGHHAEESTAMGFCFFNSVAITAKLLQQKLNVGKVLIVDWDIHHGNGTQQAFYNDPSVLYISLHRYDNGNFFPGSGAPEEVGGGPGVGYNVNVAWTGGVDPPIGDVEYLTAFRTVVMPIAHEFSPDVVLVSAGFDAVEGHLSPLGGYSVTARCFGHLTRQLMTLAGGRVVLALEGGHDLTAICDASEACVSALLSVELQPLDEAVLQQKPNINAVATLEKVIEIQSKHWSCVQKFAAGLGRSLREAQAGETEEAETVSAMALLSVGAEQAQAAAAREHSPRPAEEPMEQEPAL
T4 sequence (P56524 whole entry): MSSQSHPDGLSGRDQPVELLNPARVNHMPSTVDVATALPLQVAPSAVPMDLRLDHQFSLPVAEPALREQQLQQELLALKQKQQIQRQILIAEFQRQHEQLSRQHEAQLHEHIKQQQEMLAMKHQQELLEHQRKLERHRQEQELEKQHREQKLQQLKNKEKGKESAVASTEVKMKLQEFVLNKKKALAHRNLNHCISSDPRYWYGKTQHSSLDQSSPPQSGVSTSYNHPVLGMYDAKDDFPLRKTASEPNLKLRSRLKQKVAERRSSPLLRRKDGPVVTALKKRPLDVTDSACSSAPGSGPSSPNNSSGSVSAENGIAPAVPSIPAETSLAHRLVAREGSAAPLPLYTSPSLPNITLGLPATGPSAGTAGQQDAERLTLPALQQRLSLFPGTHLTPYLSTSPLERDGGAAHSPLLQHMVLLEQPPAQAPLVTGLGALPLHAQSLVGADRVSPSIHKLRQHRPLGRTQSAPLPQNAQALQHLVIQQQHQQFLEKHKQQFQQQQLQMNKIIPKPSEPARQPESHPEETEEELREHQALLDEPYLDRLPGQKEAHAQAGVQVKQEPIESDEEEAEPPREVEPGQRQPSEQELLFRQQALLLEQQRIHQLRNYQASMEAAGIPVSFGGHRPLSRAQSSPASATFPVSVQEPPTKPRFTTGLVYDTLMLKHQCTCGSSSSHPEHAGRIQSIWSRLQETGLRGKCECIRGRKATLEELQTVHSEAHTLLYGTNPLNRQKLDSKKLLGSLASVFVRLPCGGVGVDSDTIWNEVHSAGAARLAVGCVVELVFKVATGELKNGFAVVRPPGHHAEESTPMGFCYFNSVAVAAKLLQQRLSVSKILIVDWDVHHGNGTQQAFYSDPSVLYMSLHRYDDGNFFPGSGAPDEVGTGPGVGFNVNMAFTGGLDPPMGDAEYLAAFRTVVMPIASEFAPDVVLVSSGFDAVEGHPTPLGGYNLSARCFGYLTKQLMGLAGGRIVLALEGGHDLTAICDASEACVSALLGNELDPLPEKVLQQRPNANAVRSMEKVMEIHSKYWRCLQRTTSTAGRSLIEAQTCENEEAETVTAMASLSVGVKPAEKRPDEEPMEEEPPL

As for `C[C@H](CN(C)Cc1ccccc1)NC(=O)c1ccc(-c2noc(C(F)(F)F)n2)cc1F` [NT376, (R)-N-(1-(benzyl(methyl)amino)propan-2-yl)-2-fluoro-4-(5-(trifluoromethyl)-1,2,4-oxadiazol-3-yl)benzamide], the IC50 came to 0.032 ± 0.0076 µM in assay [1]; 0.00285 µM at recombinant human HDAC5; 5.03 µM at recombinant human HDAC6; 1.48 µM on recombinant human HDAC1; 0.00126 µM at recombinant human HDAC4; 4.85 µM on recombinant human HDAC11. Further, in assay [2], the IC50 was more than 4 µM.

One may read the IC50 as the concentration at which inhibition is half-maximal.

Values taken from PMC11219833, “Design and radiosynthesis of class-IIa HDAC inhibitor with high molar activity via repositioning the ^18F-radiolabel” (Scientific Reports, 2024).
